Measured values: patent US20250051283A1, “THERAPEUTIC COMPOUNDS AND METHODS” (priority 2023, published 2025)

Columns and labels:
[1] = target: T1, EV-D68 2A^pro (WT-2A^pro, strain US/KY/14-18953, expressed in E. coli BL21(DE3) from pE-SUMOstar vector) (enterovirus D68, UniProt A0A097BW19); experiment: FRET-based enzymatic assay of EV-D68 2A^pro inhibition (FRET substrate Dabcyl-KIRIVNT/GPGFGGE-Edans); format: biochemical
T1 construct: E. coli-codon-optimised gene, pE-SUMOstar, His-SUMO tag (removed with SUMO protease for nontagged form), E. coli BL21(DE3), Ni-NTA; 7JRE is the C107A mutant
Description: (§1) FIG. 4. […] Key structural variations compared to telaprevir were highlighted in red. Enzymatic inhibitory activity IC50 value was determined in the FRET-based assay. Antiviral EC50 value was determined in the CPE assay with EV-D68 US/MO/14-18947 in R.D. cells. Cytotoxicity CC50 value was determined using the neutral red uptake method in R.D. cells. The results are the mean±standard deviation of two independent experiments with three repeats in each experiment.
as §1, with “5.” for “4.”, “Jun8861” for “telaprevir”
(§2) Protein expression and purification. EV-D68 2A^pro gene from strain US/KY/14-18953 was ordered from Genscript (Piscataway, NJ) in pET28b(+) vector with E. coli codon optimization. 2A^pro gene was subcloned into pE-SUMOstar vector according to the manufacturers protocol. Plasmid encoding WT-2A^pro was transformed into BL21(DE3) competent E. coli cells, and a single colony was picked and used to inoculate 10 mL of L.B. grown supplemented with 50 μg/mL kanamycin at 37° C. at 250 rpm. The 10 mL inoculant was added to 1 L of L.B. with 50 μg/mL kanamycin and grown to an OD600 of 0.8-1.0, cooled to 18° C., then induced using 0.5 mM IPTG. Induced cultures were incubated at 18° C. for an additional 24 h, then harvested and resuspended in lysis buffer (25 mM Tris (pH 7.5); 750 mM NaCl, 2 mM DTT with 0.5 mg/mL lysozyme, 0.5 mM PMSF and 0.02 mg/mL DNase I) and lysed with alternating sonication and French press cycles. The cell debris were removed by centrifugation at 12,000×g for 45 min […]. The supernatant was incubated with Ni-NTA resin for over 2 h at 4° C. on a rotator. The Ni-NTA resin was thoroughly washed with 50 mM imidazole in wash buffer (50 mM Tris (pH 7.5), 150 mM NaCl, and 2 mM DTT); for the SUMO-tagged protein, the protein was directly eluted with 300 mM imidazole; for the nontagged 2A^pro Ni-NTA resin was treated with SUMO Protease 1 to remove the SUMO tag, then 2A^pro was washed off from the column with 10 mM imidazole in wash buffer. The imidazole was removed via dialysis or 10 K molecular weight cut-off centrifugal concentrator spin column. The purity of the protein was confirmed with SDS-PAGE. The protein concentration was determined by classic BCA assay using bovine serum albumin as a standard. EV-D68 3C^pro in pET28b(+) vector was expressed as previously described^10.
(§3) Peptide synthesis. The FRET substrate of EV-D68 2A^pro, Dabcyl-KIRIVNT/GPGFGGE-Edans, was synthesized using the Fmoc solid phase synthesis strategy.
(§4) Enzymatic assays. The reaction buffer contains 50 mM Tris (pH7.0), 150 mM NaCl, 10% Glycerol, and 2 mM DTT, and the reaction was carried out at 30° C. in Cytation 5 imaging reader (Fisher Scientific) with EX360/40-EM460/40 filter. Reactions were monitored every 90 sec. […] The reaction was initiated by adding 20 μM of FRET substrate, and the reaction was monitored for 2 hours and initial velocity was calculated for the first 30 minutes via linear regression.

EV-D68 US/MO/14-18947 = experiment: CPE assay (neutral red) with EV-D68 US/MO/14-18947 in R.D. cells; format: cell-based, Enterovirus D68; details: for antiviral activity, in words, relative to the named comparator: CPE assay, EV-D68 US/MO/14-18947 in R.D. cells
Description: Cell lines and viruses. Human rhabdomyosarcoma (R.D., ATCC, CCL-136) cells were maintained at 37° C. in a 5% CO2 atmosphere and cultured in Dulbecco's modified Eagle's medium (DMEM) supplemented with 10% fetal bovine serum (FBS) and 1% penicillin-streptomycin antibiotics. The following reagents were obtained through BEI Resources, NIAID, NIH: Human Enterovirus D68, US/MO/14-18949, NR-49130; Enterovirus D68, US/MO/14-18947, NR-49129; Enterovirus D68, US/IL/14-18952, NR-49131; Enterovirus D68, US/KY/14-18953, NR-49132; Enterovirus D68, US/IL/14-18956, NR-49133.
Antiviral assays. Cells for antiviral assays were seeded and grown overnight at 37° C. in a 5% CO2 atmosphere for ˜90% confluency the next day. For all infections, cells were washed with PBS containing magnesium and calcium and infected with virus diluted in DMEM with 2% FBS and 30 mM MgCl2. Viruses were incubated for at least 1 h at 33° C. in a 5% CO2 atmosphere, followed by the addition of compound as well as 1% penicillin-streptomycin. For CC50 measurements, the experiment was performed similarly but excluded viral infection. For cytopathic effect (CPE) assays, cells were stained with 66 µg/mL neutral red for 2 h and neutral red uptake was measured at absorbance 540 nm using a Multiskan FC Microplate Photometer (ThermoFisher Scientific). The EC50 and CC50 values were calculated from best-fit dose response curves using GraphPad Prism. For plaque reduction assays, an 1.2% avicel microcrystalline cellulose (FMC BioPolymer, Philadelphia, PA) overlay was used and cells were stained after 3 days as previously described^26.

EV-D68 2A^pro = EV-D68 2A^pro (Enterovirus D68, UniProt A0A097BW19); experiment: FRET-based enzymatic assay of EV-D68 2Apro inhibition; format: biochemical; details: read-out: Enzymatic inhibitory activity IC50
Description: as §2, §3, §4

| Structure (SMILES) | IC50 [1] [nM] | also measured |
| --- | --- | --- |
| COC[C@H](NC(=O)[C@@H]1[C@H]2CCC[C@H]2CN1C(=O)[C@@H](NC(=O)CC12CC3CC(CC(C3)C1)C2)C(C)(C)C)C(=O)C(=O)NC1CC1 [Jun11672, (1S,3aR,6aS)-2-((S)-2-(2-((3S,5S,7S)-adamantan-1-yl)acetamido)-3,3-dimethylbutanoyl)-N—((S)-4-(cyclopropylamino)-1-methoxy-3,4-dioxobutan-2-yl)octahydrocyclopenta[c]pyrrole-1-carboxamide] | 120 ± 70 | – |
| CCC[C@H](NC(=O)[C@@H]1[C@H]2CCC[C@H]2CN1C(=O)[C@@H](NC(=O)[C@@H](NC(=O)OCc1ccccc1)C1CCCCC1)C(C)(C)C)C(=O)C(=O)NC1CC1 [Jun7453, Benzyl ((S)-1-cyclohexyl-2-(((S)-1-((1S,3aR,6aS)-1-(((S)-1-(cyclopropylamino)-1,2-dioxohexan-3-yl)carbamoyl)hexahydrocyclopenta[c]pyrrol-2(1H)-yl)-3,3-dimethyl-1-oxobutan-2-yl)amino)-2-oxoethyl)carbamate] | 360 ± 20 | EC50 (EV-D68 US/MO/14-18947; Enterovirus D, EVD68, RD, read-out: Antiviral EC50, CPE assay, EV-D68 US/MO/14-18947 in R.D. cells): 630 nM |
| CCC[C@H](NC(=O)[C@@H]1[C@H]2CCC[C@H]2CN1C(=O)OCc1ccccc1)C(=O)C(=O)NC1CC1 [Jun7424, Benzyl (1S,3aR,6aS)-1-(((S)-1-(cyclopropylamino)-1,2-dioxohexan-3-yl)carbamoyl)hexahydrocyclopenta[c]pyrrole-2(1H)-carboxylate] | – | IC50 (EV-D68 2A^pro): 4350 nM |
| CC(C)(C)[C@H](NC(=O)CC12CC3CC(CC(C3)C1)C2)C(=O)N1C[C@@H]2CCC[C@@H]2[C@H]1C(=O)NC1(C(=O)C(=O)NC2CC2)CCCCC1 [Jun11805, (1S,3aR,6aS)-2-((S)-2-(2-((3S,5S,7S)-adamantan-1-yl)acetamido)-3,3-dimethylbutanoyl)-N-(1-(2-(cyclopropylamino)-2-oxoacetyl)cyclohexyl)octahydrocyclopenta[c]pyrrole-1-carboxamide] | 740 ± 140 | – |
| CC(C)(C)[C@H](NC(=O)CC12CC3CC(CC(C3)C1)C2)C(=O)N1C[C@@H]2CCC[C@@H]2[C@H]1C(=O)N[C@@H](CC1CC1)C(=O)C(=O)NC1CC1 [Jun11761, (1S,3aR,6aS)-2-((S)-2-(2-((3S,5S,7S)-adamantan-1-yl)acetamido)-3,3-dimethylbutanoyl)-N—((S)-1-cyclopropyl-4-(cyclopropylamino)-3,4-dioxobutan-2-yl)octahydrocyclopenta[c]pyrrole-1-carboxamide] | 140 ± 10 | antiviral activity, in words, relative to the named comparator (EV-D68 US/MO/14-18947): failed to improve the antiviral potency compared to Jun8861 |
| CC(C)(C)[C@H](NC(=O)CC12CC3CC(CC(C3)C1)C2)C(=O)N1C[C@@H]2CCC[C@@H]2[C@H]1C(=O)NC1(C(=O)C(=O)NC2CC2)CCC1 [Jun11806, (1S,3aR,6aS)-2-((S)-2-(2-((3S,5S,7S)-adamantan-1-yl)acetamido)-3,3-dimethylbutanoyl)-N-(1-(2-(cyclopropylamino)-2 oxoacetyl)cyclobutyl)octahydrocyclopenta[c]pyrrole-1-carboxamide] | 4810 ± 810 | – |
| CC(C)C[C@H](NC(=O)[C@@H]1[C@H]2CCC[C@H]2CN1C(=O)[C@@H](NC(=O)CC12CC3CC(CC(C3)C1)C2)C(C)(C)C)C(=O)C(=O)NC1CC1 [Jun11389, (1S,3aR,6aS)-2-((S)-2-(2-((3S,5S,7S)-adamantan-1-yl)acetamido)-3,3-dimethyl-butanoyl)-N—((S)-1-(cyclopropylamino)-5-methyl-1,2-dioxohexan-3-yl)octahydro-cyclopenta[c]pyrrole-1-carboxamide] | 260 ± 50 | antiviral activity, in words, relative to the named comparator (EV-D68 US/MO/14-18947): failed to improve the antiviral potency compared to Jun8861 |
| CCCC(NC(=O)C1C2CCCC2CN1C(=O)C(NC(=O)CC1C2CC3CC(C2)CC1C3)C(C)(C)C)C(=O)C(=O)NC1CC1 [Jun1024, (1S)-2-((S)-2-(2-((1S,3S,5S,7S)-adamantan-2-yl)acetamido)-3,3-dimethylbutanoyl)-N—((S)-1-(cyclopropylamino)-1,2-dioxohexan-3-yl)octahydrocyclopenta[c]pyrrole-1-carboxamide] | 120 ± 10 | – |
| CC(C)(C)[C@H](NC(=O)CC12CC3CC(CC(C3)C1)C2)C(=O)N1C[C@@H]2CCC[C@@H]2[C@H]1C(=O)N[C@H](C(=O)C(=O)NC1CC1)c1ccccc1 [Jun11817, (1S,3aR,6aS)-2-((S)-2-(2-((3S,5S,7S)-adamantan-1-yl)acetamido)-3,3-dimethylbutanoyl)-N—((S)-3-(cyclopropylamino)-2,3-dioxo-1-phenylpropyl)octahydrocyclopenta[c]pyrrole-1-carboxamide] | 230 ± 80 | – |
| CC(C)(C)C(NC(=O)CC12CC3CC(CC(C3)C1)C2)C(=O)N1CC2CCCC2C1C(=O)NC(C(=O)C(N)=O)C1CCCCC1 [Jun11725, (1S,3aR,6aS)-2-((S)-2-(2-((3S,5S,7S)-adamantan-1-yl)acetamido)-3,3-dimethylbutanoyl)-N—((S)-3-amino-1-cyclohexyl-2,3-dioxopropyl)octahydro-cyclopenta[c]pyrrole-1-carboxamide] | 190 ± 20 | – |
| CC(C)(C)[C@H](NC(=O)CC12CC3CC(CC(C3)C1)C2)C(=O)N1C[C@@H]2CCC[C@@H]2[C@H]1C(=O)N[C@H](C(=O)C(=O)NC1CC1)c1ccc(F)cc1 [Jun11861, (1S,3aR,6aS)-2-((S)-2-(2-((3S,5S,7S)-adamantan-1-yl)acetamido)-3,3-dimethylbutanoyl)-N—((S)-3-(cyclopropylamino)-1-(4-fluorophenyl)-2,3-dioxopropyl)octahydrocyclopenta[c]pyrrole-1-carboxamide] | 350 ± 130 | – |
| CCCC(NC(=O)C1C2CCCC2CN1C(=O)C(NC(=O)CC12CC3CC(CC(O)(C3)C1)C2)C(C)(C)C)C(=O)C(=O)NC1CC1 [Jun922, (1S,3aR,6aS)—N—((S)-1-(cyclopropylamino)-1,2-dioxohexan-3-yl)-2-((S)-2-(2-((1r,3R,5R,7S)-3-hydroxyadamantan-1-yl)acetamido)-3,3-dimethylbutanoyl)octa-hydrocyclopenta[c]pyrrole-1-carboxamide] | 400 ± 50 | – |
| CC(C)(C)[C@H](NC(=O)CC12CC3CC(CC(C3)C1)C2)C(=O)N1C[C@@H]2CCC[C@@H]2[C@H]1C(=O)N[C@@H](Cc1ccsc1)C(=O)C(=O)NC1CC1 [Jun11818] | 120 ± 20 | – |
